These results are taken from patent publication US11026419B2, “Silver- and copper-chelating ionic liquids, polymers, and gels, and uses thereof” (Massachusetts Institute of Technology, priority 2016, dated 2021).

Data set [1] concerns Pseudomonas aeruginosa (PA14). Description: Antimicrobial sensitivity, colony forming units (CFU) of PA14. As to conditions: PA14, compared with control samples (FIG. 2). Type of data set: cell-based. The source says: Antimicrobial sensitivity experiments used Pseudomonas aeruginosa (PA14, FIG. 2) a gram-negative monoflagellated bacterium. This is a model bacterium for such studies as it is […] and is an opportunistic human pathogen, colonizing immunocompromised patients, such as those with cystic fibrosis, cancer, or AIDS [15].

Data set [2] concerns PA14. Description: Turbidity of PA14 solutions as indication of bacterial growth. The format is cell-based, Pseudomonas aeruginosa. As to conditions: PA14 solution with 10 uL IL (FIG. 3).
Data set [3] relates to HEK cells. Description: Cell viability assay, LDH release. Type of data set: cell-based, human. Conditions: 24 hours treatment, at the higher concentrations tested. The procedure:
The toxicity of the compounds towards human cells was tested using HEK cell lines (FIG. 5), which were cultured in DMEM medium and 10% Fetal Bovine Serum at 37° C. in 5% CO2. 5×10^4 cells were seeded into 96-well plates 24 hours before treatment. Incremental concentrations of ionic liquids (diluted 2×) were added into the wells for another 24 hours. The release of the cytosolic enzyme lactate dehydrogenase (LDH) was then measured, following the manual of Pierce LDH Cytotoxicity Assay Kit (Thermofisher, Mass., USA). Untreated cells (live cells) and cells treated with lysis buffer for 2 hours (dead cells) were used as the reference for normalization. All experiments were performed in triplicate. […] Experiments were repeated using an MTX assay with the trend in the results matching those of the LDH assay.
(In general: Release of lactate dehydrogenase indicates damage to the cell membrane.)

On to “N-hexylethylenediaminium bis(trifluoroethanesulfonyl)amide [[HHex][Tf2N]]”, for which the “drop in the colony-forming unit (CFU)” value in data set [1] was ~3 orders of magnitude. In data set [2], the “turbidity / bacteria growth” value was “no turbidity”. Further, in data set [3], the reduced cell viability is listed as ~50%.
Take “N-butyl(ethylenediaminium) bis(trifluoroethanesulfonyl)amide [[HButylen][Tf2N]]”: the reduced cell viability in data set [3] is reported as ~50%.
